Results taken from PubChem BioAssay (NCI).
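Tested at 5 concentrations; 48 h exposure; 96-well plates; endpoints linearly interpolated, else capped at highest concentration. GI50: concentration for 50% inhibition of growth. TGI: concentration producing complete growth inhibition.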

Key:
Test in all cases: DTP human tumour cell line panel, 48 h
[1] = system: UO-31 renal
[2] = system: MDA-MB-231 breast
[3] = system: OVCAR-4 ovarian
[4] = system: HCT-116 colon
[5] = system: UACC-257 melanoma
[6] = system: MOLT-4 leukemia
[7] = system: SNB-19 CNS
[8] = system: SR leukemia
[9] = system: HT29 colon
[10] = system: HS 578T breast
[11] = system: NCI-H460 lung
[12] = system: SF-295 CNS
[13] = system: SF-539 CNS
[14] = system: SNB-75 CNS
[15] = system: SF-268 CNS
[16] = system: BT-549 breast
[17] = system: MALME-3M melanoma
[18] = system: TK-10 renal
[19] = system: OVCAR-8 ovarian
[20] = system: SK-MEL-28 melanoma
[21] = system: MDA-MB-435
[22] = system: HCT-15 colon
[23] = system: MCF7 breast
[24] = system: M14 melanoma
[25] = system: A498 renal
[26] = system: A549 NSCLC
[27] = system: LOX IMVI melanoma
[28] = system: HL-60(TB) leukemia
[29] = system: HOP-62 NSCLC
[30] = system: IGROV1 ovarian
[31] = system: HCC-2998 colon
[32] = system: K-562 leukemia
[33] = system: PC-3 prostate
[34] = system: UACC-62 melanoma
[35] = system: SK-MEL-5 melanoma
[36] = system: OVCAR-5 ovarian
[37] = system: SK-MEL-2 melanoma
[38] = system: EKVX NSCLC
[39] = system: HOP-92 NSCLC
[40] = system: U251 CNS
[41] = system: RPMI-8226 leukemia
[42] = system: SN12C renal
[43] = system: SW-620 colon
[44] = system: T-47D breast
[45] = system: ACHN renal
[46] = system: 786-0 renal
[47] = system: NCI-H226 lung
[48] = system: RXF 393 renal
[49] = system: NCI-H522 lung
[50] = system: SK-OV-3 ovarian
[51] = system: CAKI-1 renal
[52] = system: KM12 colon
[53] = system: OVCAR-3 ovarian
[54] = system: COLO 205 colon
[55] = system: NCI/ADR-RES ovarian
[56] = system: DU-145 prostate

CCn1c2ccc(/C=N/OCCCN(C)C)cc2c2cc(/C=N/OCCCN(C)C)ccc21
GI50 [1]: 1.5 µM
TGI [1]: 3.24 µM
GI50 [2]: 2.23 µM
TGI [2]: 5.34 µM
GI50 [3]: 1.73 µM
TGI [3]: 3.35 µM
GI50 [4]: 1.27 µM
TGI [4]: 2.7 µM
GI50 [5]: 1.68 µM
TGI [5]: 3.09 µM
GI50 [6]: 1.92 µM
TGI [6]: 6.21 µM
GI50 [7]: 3.65 µM
TGI [7]: 14 µM
GI50 [8]: 1.83 µM
TGI [8]: 4.38 µM
GI50 [9]: 1.52 µM
TGI [9]: 3.51 µM
GI50 [10]: 2.52 µM
TGI [10]: 7.95 µM
GI50 [11]: 2.02 µM
TGI [11]: 4.36 µM
GI50 [12]: 1.94 µM
TGI [12]: 3.82 µM
GI50 [13]: 1.62 µM
TGI [13]: 2.99 µM
GI50 [14]: 1.68 µM
TGI [14]: 3.93 µM
GI50 [15]: 3.69 µM
TGI [15]: 14.2 µM
GI50 [16]: 1.71 µM
TGI [16]: 3.22 µM
GI50 [17]: 1.8 µM
TGI [17]: 3.4 µM
GI50 [18]: 14.1 µM
TGI [18]: 28.2 µM
GI50 [19]: 2.07 µM
TGI [19]: 4.88 µM
GI50 [20]: 1.65 µM
TGI [20]: 3.18 µM
GI50 [21]: 1.48 µM
TGI [21]: 2.84 µM
GI50 [22]: 1.75 µM
TGI [22]: 3.96 µM
GI50 [23]: 1.49 µM
TGI [23]: 3.07 µM
GI50 [24]: 1.7 µM
TGI [24]: 3.23 µM
GI50 [25]: 4.45 µM
TGI [25]: 17.2 µM
GI50 [26]: 1.59 µM
TGI [26]: 3.01 µM
GI50 [27]: 1.5 µM
TGI [27]: 2.94 µM
GI50 [28]: 1.68 µM
TGI [28]: 3.95 µM
GI50 [29]: 4.64 µM
TGI [29]: 18.9 µM
GI50 [30]: 3.08 µM
TGI [30]: 10.3 µM
GI50 [31]: 1.51 µM
TGI [31]: 2.95 µM
GI50 [32]: 1.49 µM
TGI [32]: 3.63 µM
GI50 [33]: 2.51 µM
TGI [33]: 10.9 µM
GI50 [34]: 1.92 µM
TGI [34]: 3.87 µM
GI50 [35]: 1.8 µM
TGI [35]: 3.23 µM
GI50 [36]: 2.88 µM
TGI [36]: 11.5 µM
GI50 [37]: 15.7 µM
TGI [37]: 30.3 µM
GI50 [38]: 3.26 µM
TGI [38]: 13.7 µM
GI50 [39]: 1.7 µM
TGI [39]: 8.22 µM
GI50 [40]: 1.62 µM
TGI [40]: 3.14 µM
GI50 [41]: 1.77 µM
TGI [41]: 4.08 µM
GI50 [42]: 9.08 µM
TGI [42]: 21.5 µM
GI50 [43]: 1.81 µM
TGI [43]: 3.78 µM
GI50 [44]: 1.8 µM
TGI [44]: 3.82 µM
GI50 [45]: 1.72 µM
TGI [45]: 3.13 µM
GI50 [46]: 1.55 µM
TGI [46]: 3.2 µM
GI50 [47]: 10 µM
TGI [47]: 25.2 µM
GI50 [48]: 1.18 µM
TGI [48]: 2.49 µM
GI50 [49]: 1.73 µM
TGI [49]: 3.43 µM
GI50 [50]: 16.4 µM
TGI [50]: 31.2 µM
GI50 [51]: 1.43 µM
TGI [51]: 2.74 µM
GI50 [52]: 3.24 µM
TGI [52]: 13.7 µM
GI50 [53]: 2.08 µM
TGI [53]: 5.28 µM
GI50 [54]: 1.61 µM
TGI [54]: 3.05 µM
GI50 [55]: 1.97 µM
TGI [55]: 4.89 µM
GI50 [56]: 3.46 µM
TGI [56]: 12.3 µM
